{
  "source": "patent US5047532A",
  "about": "“Isolation and elucidation of Cephalostatins 5 and 6” (Arizona Board of Regents, acting on behalf of Arizona State …, priority 1989, dated 1991)",
  "origin": "cited, not measured here",
  "test_system": "murine P388 lymphocytic leukemia (PS cell line)",
  "details": "Pettit et al, J. Chem. Soc. Chem. Commun. 85 (1988)",
  "data": [
    {"smiles": "C[C@@H]1[C@]2(O[C@H]3C=C4[C@@H]5CC[C@H]6Cc7nc8c(nc7C[C@]6(C)[C@H]5C[C@@H](O)[C@]4(C)[C@]31O)C[C@@H]1CC[C@H]3C4=CC[C@@H]5[C@H](C)[C@@]6(OC[C@]45C(=O)C[C@@H]3[C@@]1(C)C8)OC(C)(C)C[C@H]6O)O[C@](C)(CO)C[C@H]2O", "note": "[Cephalostatin 1]", "values": [
      {"measurement": "murine P388 lymphocytic leukemia (PS system) cell growth inhibition", "value": "cell growth inhibitor"}
    ]}
  ]
}
